# Reference: the RepoRT retention time repository
# Test: RP, Waters ACQUITY UPLC BEH C18, 150 × 2.1 mm, 1.7 µm, 40 °C, 0.4 mL/min, estimated dead time 0.83 min; A: water + 0.1% formic acid, pH 3; B: acetonitrile; gradient (min/%B) 0/2 1.5/8 3.5/14 6/16 8/25 9.2/98 10.5/2 12/2
# Conditions: stereoisomer not certain
row,SMILES,LC retention time
1,O=c1cc(-c2ccc(O)c(O)c2)oc2c(C3OC(CO)C(O)C(O)C3O)c(O)c(C3OCC(O)C(O)C3O)c(O)c12 (stereo not drawn) [luteolin 6-C-arabinoside 8-C-glucoside],4.87 min
2,COc1cc(C=CC(=O)NCCCCN=C(N)N)cc2c1OC(c1ccc(O)cc1)C2C(=O)NCCCCN=C(N)N (stereo not drawn) [hordatine B],4.42 min
3,COc1cc(C=CC(=O)OC2COC(OC3C(c4c(O)cc5oc(-c6ccc(O)cc6)cc(=O)c5c4O)OC(CO)C(O)C3O)C(O)C2O)cc(OC)c1O (stereo not drawn) [sinapoyl-isovitexin 2''-O-arabinoside],9.32 min
4,O=c1cc(-c2ccc(O)cc2)oc2c(C3OCC(O)C(O)C3O)c(O)c(C3OC(CO)C(O)C(O)C3O)c(O)c12 (stereo not drawn) [apigenin 6-C-glucoside-8-C-arabinoside],4.93 min
5,COc1cc(-c2cc(=O)c3c(O)c(C4OC(CO)C(O)C(O)C4OC4OCC(OC(=O)C=Cc5cc(OC)c(O)c(OC)c5)C(O)C4O)c(O)cc3o2)ccc1O (stereo not drawn) [sinapoyl-isoscoparin 2''-O-arabinoside],9.65 min
6,COc1cc(C=CC(=O)OCC2OC(Oc3cc4oc(-c5ccc(O)c(O)c5)cc(=O)c4c(O)c3C3OC(CO)C(O)C(O)C3O)C(O)C(O)C2O)ccc1O (stereo not drawn) [isoorientin 7-O-[6''-feruloyl]-glucoside],6.23 min
7,COc1cc(C=CC(=O)OCC2OC(OC3C(c4c(O)cc5oc(-c6ccc(O)cc6)cc(=O)c5c4O)OC(CO)C(O)C3O)C(O)C(O)C2O)ccc1O (stereo not drawn) [feruloyl-isovitexin 2''-O-glucoside],7.88 min
8,O=c1cc(-c2ccc(O)cc2)oc2cc(O)c(C3OC(CO)C(O)C(O)C3OC3OCC(O)C(O)C3O)c(O)c12 (stereo not drawn) [isovitexin 2''-O-arabinoside],5.62 min
9,COc1cc(-c2cc(=O)c3c(O)c(C4OC(CO)C(O)C(O)C4O)c(OC4OC(COC(=O)C=Cc5cc(OC)c(O)c(OC)c5)C(O)C(O)C4O)cc3o2)ccc1O (stereo not drawn) [isoscoparin 7-O-[6''-sinapoyl]-glucoside],7.62 min
10,O=c1cc(-c2ccc(O)cc2)oc2cc(OC3OC(CO)C(O)C(O)C3O)c(C3OC(CO)C(O)C(O)C3O)c(O)c12 (stereo not drawn) [isovitexin 7-O-glucoside (saponarin)],4.61 min
11,COc1cc(C=CC(=O)OCC2OC(Oc3cc(O)c4c(=O)cc(-c5cc(OC)c(O)c(OC)c5)oc4c3)C(O)C(O)C2O)cc(OC)c1O (stereo not drawn) [sinapoyl-tricin 7-O-glucoside],4.56 min

# Now from value to compound:
row,LC retention time,SMILES
1,5.25 min,O=c1cc(-c2ccc(O)cc2)oc2c(C3OC(CO)C(O)C(O)C3O)c(O)c(C3OC(CO)C(O)C(O)C3O)c(O)c12 (stereo not drawn) [isovitexin 8-C-glucoside]
2,4.52 min,NC(N)=NCCCCNC(=O)C=Cc1ccc2c(c1)C(C(=O)NCCCCN=C(N)N)C(c1ccc(O)cc1)O2 (stereo not drawn) [hordatine A]
3,4.69 min,CC1OC(OC2C(Oc3cc4oc(-c5ccc(O)c(O)c5)cc(=O)c4c(O)c3C3OC(CO)C(O)C(O)C3O)OC(CO)C(O)C2O)C(O)C(O)C1O (stereo not drawn) [isoorientin 7-O-rhamnosylglucoside]
4,8.42 min,COc1cc(-c2cc(=O)c3c(O)cc(OC4OC(COC5OC(CO)C(O)C(O)C5O)C(O)C(O)C4O)cc3o2)ccc1O (stereo not drawn) [chrysoeriol 7-O-diglucoside]
5,4.81 min,CC1OC(OC2C(Oc3cc4oc(-c5ccc(O)cc5)cc(=O)c4c(O)c3C3OC(CO)C(O)C(O)C3O)OC(CO)C(O)C2O)C(O)C(O)C1O (stereo not drawn) [isovitexin 7-O-rhamnosylglucoside]
6,6.97 min,COc1cc(-c2cc(=O)c3c(O)c(C4OC(CO)C(O)C(O)C4OC4OCC(O)C(O)C4O)c(O)cc3o2)ccc1O (stereo not drawn) [isoscoparin 2''-O-arabinoside]
7,10.6 min,COc1cc(-c2cc(=O)c3c(O)cc(OC4OC(COC(=O)C=Cc5ccc(O)cc5)C(O)C(O)C4O)cc3o2)ccc1O (stereo not drawn) [chrysoeriol 7-O-[6''-coumaroyl]-glucoside]
